Source: patent publication US8952024B2, “Herbicidal pyrimidone derivatives” (E I du Pont de Nemours and Company, priority 2009, dated 2015)

What follows are molecules tested on giant foxtail (Setaria faberii) (assay: Test B pre-/postemergence plant response). Details: Postemergence, 250 g ai/ha; scale 0 to 100 (0 no effect, 100 complete control); 13 to 15 days.
Format: in vivo
Procedure, shortened: (§1)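 Greenhouse herbicide screen. Pre- and postemergence (1- to 4-leaf) spray of compound in solvent/surfactant mixture; loam–sand soil for pre, peat/vermiculite medium for post. Visual control rating 0–100 at 13 to 15 days after treatment.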

Question: `CCCn1c(-c2ccsc2)ncc(C(=O)C2=C(O)C3CCC(C3)C2=O)c1=O` (stereo not shown) [Compound 227] was tested. Which “Plant response rating, Foxtail, Giant” value did it give?
Answer: The value was 98.

What follows are molecules tested on green foxtail (Setaria viridis) (assay: Test B pre-/postemergence plant response). Details: Postemergence, 31 g ai/ha; 0 to 100 scale (0 no effect, 100 complete control).
Format: in vivo
Procedure, shortened: as §1

Question: For `CCCn1c(-c2ccsc2)ncc(C(=O)C2=C(O)C3CCC(C3)C2=O)c1=O` (stereo not shown) [Compound 227], which “Plant response rating, Foxtail, Green” value is on record?
Answer: The value was 50.

Same assay, conditions: Postemergence, 62 g ai/ha; scale 0 to 100 (0 no effect, 100 complete control)

Question: For `CCCn1c(-c2ccsc2)ncc(C(=O)C2=C(O)C3CCC(C3)C2=O)c1=O` (stereo not shown) [Compound 227], which “Plant response rating, Foxtail, Green” value is on record?
Answer: The value was 90.

Same assay, conditions: Postemergence, 125 g ai/ha; scale 0 to 100 (0 no effect, 100 complete control)

Question: Which “Plant response rating, Foxtail, Green” value does the source give for `CCCn1c(-c2ccsc2)ncc(C(=O)C2=C(O)C3CCC(C3)C2=O)c1=O` (stereo not shown) [Compound 227] here?
Answer: The value was 90.

Same assay, conditions: Postemergence, 250 g ai/ha; scale 0 to 100 (0 no effect, 100 complete control); 13 to 15 days

Question: For `CCCn1c(-c2ccsc2)ncc(C(=O)C2=C(O)C3CCC(C3)C2=O)c1=O` (stereo not shown) [Compound 227], which “Plant response rating, Foxtail, Green” value is on record?
Answer: Its value is 90.

What follows are molecules tested on lambsquarters (Chenopodium album) (assay: Test B pre-/postemergence plant response). Details: Postemergence, 31 g ai/ha; 0 to 100 scale (0 no effect, 100 complete control).
Format: in vivo
Procedure, shortened: as §1

Question: For `CCCn1c(-c2ccsc2)ncc(C(=O)C2=C(O)C3CCC(C3)C2=O)c1=O` (stereo not shown) [Compound 227], which “Plant response rating, Lambsquarters” value is on record?
Answer: The value was 90.

Same assay, conditions: Postemergence, 62 g ai/ha; scale 0 to 100 (0 no effect, 100 complete control)

Question: For `CCCn1c(-c2ccsc2)ncc(C(=O)C2=C(O)C3CCC(C3)C2=O)c1=O` (stereo not shown) [Compound 227], which “Plant response rating, Lambsquarters” value is on record?
Answer: Its value is 98.

Same assay, conditions: Postemergence, 125 g ai/ha; scale 0 to 100 (0 no effect, 100 complete control)

Question: `CCCn1c(-c2ccsc2)ncc(C(=O)C2=C(O)C3CCC(C3)C2=O)c1=O` (stereo not shown) [Compound 227] was tested. Which “Plant response rating, Lambsquarters” value did it give?
Answer: Its value is 98.

Same assay, conditions: Postemergence, 250 g ai/ha; scale 0 to 100 (0 no effect, 100 complete control); 13 to 15 days

Question: Which “Plant response rating, Lambsquarters” value does the source give for `CCCn1c(-c2ccsc2)ncc(C(=O)C2=C(O)C3CCC(C3)C2=O)c1=O` (stereo not shown) [Compound 227] here?
Answer: The value was 98.

The molecules below were run on large crabgrass (Digitaria sanguinalis) (assay: Test B pre-/postemergence plant response). Details: Postemergence, 31 g ai/ha; 0 to 100 scale (0 no effect, 100 complete control).
Format: in vivo
Procedure, shortened: as §1

Question: How did the “Plant response rating, Crabgrass, Large” value turn out when `CCCn1c(-c2ccsc2)ncc(C(=O)C2=C(O)C3CCC(C3)C2=O)c1=O` (stereo not shown) [Compound 227] was run?
Answer: Its value is 80.

Same assay, conditions: Postemergence, 62 g ai/ha; scale 0 to 100 (0 no effect, 100 complete control)

Question: `CCCn1c(-c2ccsc2)ncc(C(=O)C2=C(O)C3CCC(C3)C2=O)c1=O` (stereo not shown) [Compound 227] was tested. Which “Plant response rating, Crabgrass, Large” value did it give?
Answer: The value was 80.

Same assay, conditions: Postemergence, 125 g ai/ha; scale 0 to 100 (0 no effect, 100 complete control)

Question: How did the “Plant response rating, Crabgrass, Large” value turn out when `CCCn1c(-c2ccsc2)ncc(C(=O)C2=C(O)C3CCC(C3)C2=O)c1=O` (stereo not shown) [Compound 227] was run?
Answer: Its value is 85.

Same assay, conditions: Postemergence, 250 g ai/ha; scale 0 to 100 (0 no effect, 100 complete control); 13 to 15 days

Question: How did the “Plant response rating, Crabgrass, Large” value turn out when `CCCn1c(-c2ccsc2)ncc(C(=O)C2=C(O)C3CCC(C3)C2=O)c1=O` (stereo not shown) [Compound 227] was run?
Answer: The value was 90.

These molecules were tested on morningglory (Ipomoea coccinea) (assay: Test B pre-/postemergence plant response). Details: Postemergence, 31 g ai/ha; 0 to 100 scale (0 no effect, 100 complete control).
Format: in vivo
Procedure, shortened: as §1

Question: Which “Plant response rating, Morningglory” value does the source give for `CCCn1c(-c2ccsc2)ncc(C(=O)C2=C(O)C3CCC(C3)C2=O)c1=O` (stereo not shown) [Compound 227] here?
Answer: Its value is 100.

Same assay, conditions: Postemergence, 62 g ai/ha; scale 0 to 100 (0 no effect, 100 complete control)

Question: With `CCCn1c(-c2ccsc2)ncc(C(=O)C2=C(O)C3CCC(C3)C2=O)c1=O` (stereo not shown) [Compound 227] as the molecule, how does the “Plant response rating, Morningglory” value read?
Answer: Its value is 100.

Same assay, conditions: Postemergence, 125 g ai/ha; scale 0 to 100 (0 no effect, 100 complete control)

Question: With `CCCn1c(-c2ccsc2)ncc(C(=O)C2=C(O)C3CCC(C3)C2=O)c1=O` (stereo not shown) [Compound 227] as the molecule, how does the “Plant response rating, Morningglory” value read?
Answer: The value was 100.

Same assay, conditions: Postemergence, 250 g ai/ha; scale 0 to 100 (0 no effect, 100 complete control); 13 to 15 days

Question: `CCCn1c(-c2ccsc2)ncc(C(=O)C2=C(O)C3CCC(C3)C2=O)c1=O` (stereo not shown) [Compound 227] was tested. Which “Plant response rating, Morningglory” value did it give?
Answer: The value was 100.

The molecules below were run on woolly cupgrass (Eriochloa villosa) (assay: Test B pre-/postemergence plant response). Details: Postemergence, 31 g ai/ha; 0 to 100 scale (0 no effect, 100 complete control).
Format: in vivo
Procedure, shortened: as §1

Question: `CCCn1c(-c2ccsc2)ncc(C(=O)C2=C(O)C3CCC(C3)C2=O)c1=O` (stereo not shown) [Compound 227] was tested. Which “Plant response rating, Cupgrass, Woolly” value did it give?
Answer: The value was 55.

Same assay, conditions: Postemergence, 62 g ai/ha; scale 0 to 100 (0 no effect, 100 complete control)

Question: With `CCCn1c(-c2ccsc2)ncc(C(=O)C2=C(O)C3CCC(C3)C2=O)c1=O` (stereo not shown) [Compound 227] as the molecule, how does the “Plant response rating, Cupgrass, Woolly” value read?
Answer: Its value is 75.

Same assay, conditions: Postemergence, 125 g ai/ha; scale 0 to 100 (0 no effect, 100 complete control)

Question: Which “Plant response rating, Cupgrass, Woolly” value does the source give for `CCCn1c(-c2ccsc2)ncc(C(=O)C2=C(O)C3CCC(C3)C2=O)c1=O` (stereo not shown) [Compound 227] here?
Answer: The value was 90.

Same assay, conditions: Postemergence, 250 g ai/ha; scale 0 to 100 (0 no effect, 100 complete control); 13 to 15 days

Question: With `CCCn1c(-c2ccsc2)ncc(C(=O)C2=C(O)C3CCC(C3)C2=O)c1=O` (stereo not shown) [Compound 227] as the molecule, how does the “Plant response rating, Cupgrass, Woolly” value read?
Answer: The value was 95.

What follows are molecules tested on yellow nutsedge (Cyperus esculentus) (assay: Test B pre-/postemergence plant response). Details: Postemergence, 31 g ai/ha; 0 to 100 scale (0 no effect, 100 complete control).
Format: in vivo
Procedure, shortened: as §1

Question: For `CCCn1c(-c2ccsc2)ncc(C(=O)C2=C(O)C3CCC(C3)C2=O)c1=O` (stereo not shown) [Compound 227], which “Plant response rating, Nutsedge, Yellow” value is on record?
Answer: The value was 10.

Same assay, conditions: Postemergence, 62 g ai/ha; scale 0 to 100 (0 no effect, 100 complete control)

Question: Which “Plant response rating, Nutsedge, Yellow” value does the source give for `CCCn1c(-c2ccsc2)ncc(C(=O)C2=C(O)C3CCC(C3)C2=O)c1=O` (stereo not shown) [Compound 227] here?
Answer: The value was 45.

Same assay, conditions: Postemergence, 125 g ai/ha; scale 0 to 100 (0 no effect, 100 complete control)

Question: For `CCCn1c(-c2ccsc2)ncc(C(=O)C2=C(O)C3CCC(C3)C2=O)c1=O` (stereo not shown) [Compound 227], which “Plant response rating, Nutsedge, Yellow” value is on record?
Answer: The value was 65.

Same assay, conditions: Postemergence, 250 g ai/ha; scale 0 to 100 (0 no effect, 100 complete control); 13 to 15 days

Question: `CCCn1c(-c2ccsc2)ncc(C(=O)C2=C(O)C3CCC(C3)C2=O)c1=O` (stereo not shown) [Compound 227] was tested. Which “Plant response rating, Nutsedge, Yellow” value did it give?
Answer: Its value is 65.
